Data reported in US20100209536A1, “Methods and Kits for Use in the Treatment and Prevention of Diseases or Conditions of the Immune System or Infectious Diseases” (The Brigham and Women's Hospital, Inc., priority 2006, published 2010).

Legend:
Assay type in all cases: in vivo, human
[1] = test system: severe asthma exacerbations in childhood asthmatics; experiment: Childhood Asthma Management Program: baseline serum 25(OH)D and outcomes in childhood asthmatics on inhaled corticosteroid
Excerpt: We measured 25(OH)D levels in stored serum (collected on entry into the trial) from 305 childhood asthmatics who were randomized to the inhaled corticosteroid arm of the multi-center Childhood Asthma Management Program. We then analyzed baseline 25(OH)D levels for their association with severe asthma exacerbations (defined as emergency room visits or hospitalizations for asthma) over the course of the 4-year trial.

[2] = test system: any wheeze in the first 2 yrs; experiment: Project Viva antioxidant study: maternal intake and any wheeze in the first 2 yrs; settings: for Any wheeze in the first 2 yrs, Univariate Model OR (95% CI) / Any wheeze in the first 2 yrs, Multivariable Model OR (95% CI): including supplements; for Any Wheeze, Foods Only OR / Any Wheeze, Supplements Only OR: univariate; for Any Wheeze, Foods Only OR: intake from foods only; for Any Wheeze, Supplements Only OR: intake from supplements only; for Association of total maternal intake with any wheeze in univariable models: total intakes
Excerpt: (§1) Study subjects were enrolled in Project Viva, as described above. Recruitment and retention procedures have previously been published (Gillman et al., J. Pediatr. 144:240-245, 2004). We obtained information directly from participants and from medical records as detailed previously (Rifas-Shiman, Paediatr. Perinat. Epidemiol. 20:35-42, 2006). Data collected from interviews and questionnaires included demographics (infant gender, maternal marital status, and race), socioeconomic status (education and household income), and reproductive history (maternal gravidity, pre-pregnancy height and body mass index, and smoking). Questionnaires that inquired about infant health, feeding, and the home environment were administered when the child was 6 months, 1 year, and 2 years of age. Among 2,128 delivered infants in Project Viva, we excluded 228 participants because of missing first and second trimester diet assessment data and an additional 37 participants with a gestation of less than 34 completed weeks.
(§2) We assessed maternal diet using semi-quantitative food-frequency questionnaires (FFQ) validated for use during pregnancy (Fawzi et al., Ann. Epidemiol. 14:754-762, 2004), and used in several of our previous studies of maternal diet and offspring outcomes (Oken et al., Am. J. Epidemiol. 160:774-783, 2004; Huh et al., Int. J. Epidemiol. 34:378-384, 2005; Gillman et al., Circulation 110:1990-1995, 2004). As noted above, the FFQ used at the 1st visit reflected intakes in the 1st trimester; the time referent was “during this pregnancy,” that is from the date of the last menstrual period until the assessment, at an average of about 10 weeks gestation. To assess vitamin and supplement intake during the 1st trimester, we administered a separate interview that queried dose, duration, and brand/type of multivitamin, prescribed prenatal vitamins, and supplements. Also as noted above, the FFQ used at the 2nd visit (26 to 28 weeks of gestation) reflected intakes during the 2nd trimester; the time referent was “during the past 3 months.” The 2nd trimester instrument was the same as that for the 1st trimester except that we assessed use of vitamins/supplements as part of the self-completed FFQ.
(§3) To calculate intake of nutrients, we again used the Harvard nutrient composition database, which contains food composition values from the U.S. Department of Agriculture, supplemented by other data sources (U.S. Department of Agriculture ARS. USDA National Nutrient Database for Standard Reference, Release 14, 5R14; 2001). All nutrients were adjusted for total energy intake using the nutrient residuals method (Willett, Am. J. Clin. Nutr. 45:354-360, 1987). Mean nutrient intakes from the 1st and 2nd trimesters were used as the exposure in the analyses. If a participant only completed one FFQ, then nutrients calculated from that questionnaire were taken as the exposure of interest. One thousand one hundred and thirty-five (88.0%) of the 1,290 participants completed both FFQs, 96 (7.4%) completed the first trimester FFQ only, and 59 (4.6%) completed the second trimester FFQ only.
(§4) We ascertained the wheeze outcomes from questions from the First Year and Second Year Questionnaires: “since your child was born/since your child was […], has he/she ever had wheezing (or whistiling in the chest)?” “Any wheeze” was defined as a positive response to the question at either the first or second year questionnaire. “Recurrent wheeze” was defined as positive responses to the questions in both the first and second year questionnaires. […] “Respiratory infections” was defined as positive responses to one of three questions: “since your child was born/12 months old, have you been told by a health care professional (such as a doctor, physician assistant, or nurse practitioner) that your child has: (a) bronchiolitis; (b) pneumonia; (c) bronchitis, croup, or any other respiratory infection?” on either the first or second year questionnaires. […]

[3] = test system: recurrent wheeze in the first 2 yrs; experiment: Project Viva antioxidant study: maternal intake and recurrent wheeze in the first 2 yrs; settings: for Recurrent wheeze in the first 2 yrs, Multivariable Model OR (95% CI) / Recurrent wheeze in the first 2 yrs, Univariate Model OR (95% CI): including supplements; for Recurrent Wheeze, Foods Only OR / Recurrent Wheeze, Supplements Only OR: univariate; for Recurrent Wheeze, Foods Only OR: intake from foods only; for Recurrent Wheeze, Supplements Only OR: intake from supplements only
Excerpt: as §1, §2, §3, §4

[4] = test system: respiratory infections in the 2-year old children; experiment: Project Viva antioxidant study: maternal intake and respiratory infections in 2-year old children
Excerpt: as §1
We assessed maternal diet using semi-quantitative food-frequency questionnaires (FFQ) validated for use during pregnancy (Fawzi et al., Ann. Epidemiol. 14:754-762, 2004), and used in several of our previous studies of maternal diet and offspring outcomes (Oken et al., Am. J. Epidemiol. 160:774-783, 2004; Huh et al., Int. J. Epidemiol. 34:378-384, 2005; Gillman et al., Circulation 110:1990-1995, 2004). As noted above, the FFQ used at the 1st visit reflected intakes in the 1st trimester; the time referent was “during this pregnancy,” that is from the date of the last menstrual period until the assessment, at an average of about 10 weeks gestation. […] Also as noted above, the FFQ used at the 2nd visit (26 to 28 weeks of gestation) reflected intakes during the 2nd trimester; the time referent was “during the past 3 months.” The 2nd trimester instrument was the same as that for the 1st trimester except that we assessed use of vitamins/supplements as part of the self-completed FFQ. […]

[5] = 2nd vs 1st (lowest) quartile of maternal intake, calorie adjusted, n = 1,161
[6] = 2nd vs 1st (lowest) quartile of maternal intake
[7] = 3rd vs 1st (lowest) quartile of maternal intake
[8] = 4th (highest) vs 1st (lowest) quartile of maternal intake
[9] = 4th (highest) vs 1st (lowest) quartile of maternal intake, listed as zinc
[10] = 4th (highest) vs 1st (lowest) quartile
[11] = 2nd vs 1st (lowest) quartile of maternal intake, n = 1,038

Row | Compound | Any wheeze in the first 2 yrs, Univariate Model OR (95% CI) [2, 5] | Any wheeze in the first 2 yrs, Multivariable Model OR (95% CI) [2, 6] | Any wheeze in the first 2 yrs, Multivariable Model OR (95% CI) [2, 7] | Any wheeze in the first 2 yrs, Univariate Model OR (95% CI) [2, 7] | Any wheeze in the first 2 yrs, Multivariable Model OR (95% CI) [2, 8] | Any wheeze in the first 2 yrs, Univariate Model OR (95% CI) [2, 8] | Association of total maternal intake with any wheeze in univariable models [2] | Recurrent wheeze in the first 2 yrs, Multivariable Model OR (95% CI) [3, 6] | Recurrent wheeze in the first 2 yrs, Univariate Model OR (95% CI) [3, 11] | Recurrent wheeze in the first 2 yrs, Multivariable Model OR (95% CI) [3, 7] | Recurrent wheeze in the first 2 yrs, Univariate Model OR (95% CI) [3, 7] | Recurrent wheeze in the first 2 yrs, Multivariable Model OR (95% CI) [3, 8] | Recurrent wheeze in the first 2 yrs, Univariate Model OR (95% CI) [3, 8] | Association of total maternal intake with respiratory infections in the children [4] | other results
1 | 25-Hydroxyvitamin D [25(OH)D] |  |  |  |  |  |  |  |  |  |  |  |  |  |  | Association with lung function, bronchodilator response, or airway responsiveness ([1]; 305 childhood asthmatics on inhaled corticosteroid): no associations; OR, severe asthma exacerbations over the course of the 4-year trial ([1]; children with 25(OH)D levels ≦30 ng/ml, on inhaled corticosteroid, adjusted for age, sex, height, baseline FEV1): 1.76
2 | [Zn] [Zinc, zinc] | 0.77 (0.55, 1.08) | 0.89 (0.61, 1.29) | 0.85 (0.59, 1.24) | 0.67 (0.47, 0.94)^5 | 0.59 (0.41, 0.88)^5 | 0.49 (0.34, 0.70)^5 | associated with lower risks | 0.61 (0.35, 1.06) | 0.56 (0.34, 0.92) | 0.89 (0.53, 1.49) | 0.73 (0.46, 1.17) | 0.49 (0.27, 0.87) | 0.41 (0.24, 0.69)^5 | not associated | Any Wheeze, Foods Only OR ([2]; 2nd vs 1st (lowest) quartile): 0.85; Any Wheeze, Supplements Only OR ([2]; 2nd vs 1st (lowest) quartile): 0.98; Any Wheeze, Foods Only OR ([2]; 3rd vs 1st (lowest) quartile): 0.60; Any Wheeze, Supplements Only OR ([2]; 3rd vs 1st (lowest) quartile): 0.67; Any wheeze in the first 2 yrs, Multivariable Model OR (95% CI) [2, 9]: 0.59; Any Wheeze, Foods Only OR [2, 10]: 0.60; Any Wheeze, Supplements Only OR [2, 10]: 0.63; Recurrent Wheeze, Foods Only OR ([3]; 2nd vs 1st (lowest) quartile): 0.70; Recurrent Wheeze, Supplements Only OR ([3]; 2nd vs 1st (lowest) quartile): 0.94; Recurrent Wheeze, Foods Only OR ([3]; 3rd vs 1st (lowest) quartile): 0.65; Recurrent Wheeze, Supplements Only OR ([3]; 3rd vs 1st (lowest) quartile): 0.59; Recurrent wheeze in the first 2 yrs, Multivariable Model OR (95% CI) [3, 9]: 0.49; Recurrent Wheeze, Foods Only OR [3, 10]: 0.68; Recurrent Wheeze, Supplements Only OR [3, 10]: 0.51
3 | O=C1O[C@H]([C@@H](O)CO)C(O)=C1O [Vitamin C, ascorbic acid] | 0.82 (0.58, 1.15) | 0.93 (0.65, 1.35) | 0.84 (0.58, 1.22) | 0.65 (0.46, 0.93)^5 | 0.79 (0.54, 1.15) | 0.67 (0.47, 0.94)^5 | associated with lower risks | 1.05 (0.62, 1.77) | 1.02 (0.63, 1.65) | 1.04 (0.60, 1.78) | 0.85 (0.52, 1.40) | 0.75 (0.41, 1.36) | 0.56 (0.32, 0.97)^5 | not associated | 
